Results reported in patent US11718604B2, “4-amino-6-(1,3-benzodioxole)picolinates and their use as herbicides” (Dow AgroSciences LLC, priority 2018, dated 2023).

Tests used:
Format in all cases: in vivo
[1] = test system: ABUTH: velvetleaf (Abutilon theophrasti); experiment: Post-emergent herbicidal test, velvetleaf; details: post-emergence, 336 h, 14 days after application, read-out: Visual Growth Reduction (%) 14 Days After Application ABUTH; for pest or weed control at 17.5 g/ha: 17.5 g ai/ha; for pest or weed control at 35 g/ha: 35 g ai/ha; for pest or weed control at 70 g/ha: 70 g ai/ha; for pest or weed control at 140 g/ha: 140 g ai/ha
Summary of the method: (§1)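 Greenhouse-grown plants at the first or second true leaf stage (7-21 d, ~15 h photoperiod, 23-29° C day) were sprayed overhead at 187 L/ha with compound in acetone/DMSO-based spray solution containing crop oil concentrate and surfactant. Injury was scored visually after 14 d, 0-100% versus untreated plants.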

[2] = test system: BRSNN: oilseed rape, canola (Brassica napus); experiment: Post-emergent herbicidal test, oilseed rape; details: post-emergence, 336 h, 14 days after application, read-out: Visual Growth Reduction (%) 14 Days After Application BRSNN; for pest or weed control at 17.5 g/ha: 17.5 g ai/ha; for pest or weed control at 35 g/ha: 35 g ai/ha; for pest or weed control at 70 g/ha: 70 g ai/ha; for pest or weed control at 140 g/ha: 140 g ai/ha
Summary of the method: as §1

[3] = test system: CIRAR: Canada thistle (Cirsium arvense); experiment: Post-emergent herbicidal test, Canada thistle; details: post-emergence, 336 h, 14 days after application, read-out: Visual Growth Reduction (%) 14 Days After Application CIRAR; for pest or weed control at 17.5 g/ha: 17.5 g ai/ha; for pest or weed control at 35 g/ha: 35 g ai/ha; for pest or weed control at 70 g/ha: 70 g ai/ha; for pest or weed control at 140 g/ha: 140 g ai/ha
Summary of the method: as §1

[4] = test system: EPHHL: wild poinsettia (Euphorbia heterophylla); experiment: Post-emergent herbicidal test, wild poinsettia; details: post-emergence, 336 h, 14 days after application, read-out: Visual Growth Reduction (%) 14 Days After Application EPHHL; for pest or weed control at 17.5 g/ha: 17.5 g ai/ha; for pest or weed control at 35 g/ha: 35 g ai/ha; for pest or weed control at 70 g/ha: 70 g ai/ha; for pest or weed control at 140 g/ha: 140 g ai/ha
Summary of the method: as §1

[5] = test system: IPOHE: ivyleaf morningglory (Ipomoea hederacea); experiment: Post-emergent herbicidal test, ivyleaf morningglory; details: post-emergence, 336 h, 14 days after application, read-out: Visual Growth Reduction (%) 14 Days After Application IPOHE; for pest or weed control at 17.5 g/ha: 17.5 g ai/ha; for pest or weed control at 35 g/ha: 35 g ai/ha; for pest or weed control at 70 g/ha: 70 g ai/ha; for pest or weed control at 140 g/ha: 140 g ai/ha
Summary of the method: as §1

[6] = test system: VIOTR: wild violet (Viola tricolor); experiment: Post-emergent herbicidal test, wild violet; details: post-emergence, 336 h, 14 days after application, read-out: Visual Growth Reduction (%) 14 Days After Application VIOTR; for pest or weed control at 17.5 g/ha: 17.5 g ai/ha; for pest or weed control at 35 g/ha: 35 g ai/ha; for pest or weed control at 70 g/ha: 70 g ai/ha; for pest or weed control at 140 g/ha: 140 g ai/ha
Summary of the method: as §1

[7] = test system: CYPES: yellow nutsedge (Cyperus esculentus); experiment: Post-emergent herbicidal test, yellow nutsedge; details: post-emergence, 336 h, 14 days after application, read-out: Visual Growth Reduction (%) 14 Days After Application CYPES; for pest or weed control at 17.5 g/ha: 17.5 g ai/ha; for pest or weed control at 35 g/ha: 35 g ai/ha; for pest or weed control at 70 g/ha: 70 g ai/ha; for pest or weed control at 140 g/ha: 140 g ai/ha
Summary of the method: as §1

[8] = test system: DIGSA: large crabgrass (Digitaria sanguinalis); experiment: Post-emergent herbicidal test, large crabgrass; details: post-emergence, 336 h, 14 days after application, read-out: Visual Growth Reduction (%) 14 Days After Application DIGSA; for pest or weed control at 17.5 g/ha: 17.5 g ai/ha; for pest or weed control at 35 g/ha: 35 g ai/ha; for pest or weed control at 70 g/ha: 70 g ai/ha; for pest or weed control at 140 g/ha: 140 g ai/ha
Summary of the method: as §1

[9] = test system: ECHCG: barnyardgrass (Echinochloa crus-galli); experiment: Post-emergent herbicidal test, barnyardgrass; details: post-emergence, 336 h, 14 days after application, read-out: Visual Growth Reduction (%) 14 Days After Application ECHCG; for pest or weed control at 17.5 g/ha: 17.5 g ai/ha; for pest or weed control at 35 g/ha: 35 g ai/ha; for pest or weed control at 70 g/ha: 70 g ai/ha; for pest or weed control at 140 g/ha: 140 g ai/ha
Summary of the method: as §1

[10] = test system: SETFA: giant foxtail (Setaria faberi); experiment: Post-emergent herbicidal test, giant foxtail; details: post-emergence, 336 h, 14 days after application, read-out: Visual Growth Reduction (%) 14 Days After Application SETFA; for pest or weed control at 17.5 g/ha: 17.5 g ai/ha; for pest or weed control at 35 g/ha: 35 g ai/ha; for pest or weed control at 70 g/ha: 70 g ai/ha; for pest or weed control at 140 g/ha: 140 g ai/ha
Summary of the method: as §1

[11] = test system: SORVU: shattercane (Sorghum bicolor); experiment: Post-emergent herbicidal test, shattercane; details: post-emergence, 336 h, 14 days after application, read-out: Visual Growth Reduction (%) 14 Days After Application SORVU; for pest or weed control at 17.5 g/ha: 17.5 g ai/ha; for pest or weed control at 35 g/ha: 35 g ai/ha; for pest or weed control at 70 g/ha: 70 g ai/ha; for pest or weed control at 140 g/ha: 140 g ai/ha
Summary of the method: as §1

Nc1c(F)c(-c2cccc3c2OCO3)nc(C(=O)O)c1Cl [Compound 3]
98%: pest or weed control at 140 g/ha [2]
85%: pest or weed control at 35 g/ha [3]
60%: pest or weed control at 17.5 g/ha [1] | pest or weed control at 17.5 g/ha [2]
35%: pest or weed control at 140 g/ha [6]
15%: pest or weed control at 35 g/ha [6]
95%: pest or weed control at 70 g/ha [1] | pest or weed control at 140 g/ha [1] | pest or weed control at 70 g/ha [2] | pest or weed control at 70 g/ha [3] | pest or weed control at 140 g/ha [3]
30%: pest or weed control at 70 g/ha [6]
0%: pest or weed control at 17.5 g/ha [4] | pest or weed control at 35 g/ha [4] | pest or weed control at 70 g/ha [4] | pest or weed control at 140 g/ha [4] | pest or weed control at 17.5 g/ha [5] | pest or weed control at 35 g/ha [5] | pest or weed control at 70 g/ha [5] | pest or weed control at 140 g/ha [5] | pest or weed control at 17.5 g/ha [6] | pest or weed control at 17.5 g/ha [7] | pest or weed control at 35 g/ha [7] | pest or weed control at 70 g/ha [7] | pest or weed control at 140 g/ha [7] | pest or weed control at 17.5 g/ha [8] | pest or weed control at 35 g/ha [8] | pest or weed control at 70 g/ha [8] | pest or weed control at 140 g/ha [8] | pest or weed control at 17.5 g/ha [9] | pest or weed control at 35 g/ha [9] | pest or weed control at 70 g/ha [9] | pest or weed control at 140 g/ha [9] | pest or weed control at 17.5 g/ha [10] | pest or weed control at 35 g/ha [10] | pest or weed control at 70 g/ha [10] | pest or weed control at 140 g/ha [10] | pest or weed control at 17.5 g/ha [11] | pest or weed control at 35 g/ha [11] | pest or weed control at 70 g/ha [11] | pest or weed control at 140 g/ha [11]
70%: pest or weed control at 17.5 g/ha [3]
80%: pest or weed control at 35 g/ha [1] | pest or weed control at 35 g/ha [2]

C#CCOC(=O)c1nc(-c2ccc(Cl)c3c2OCO3)c(F)c(N)c1Cl [Compound 1C]
60%: pest or weed control at 70 g/ha [6] | pest or weed control at 140 g/ha [8] | pest or weed control at 140 g/ha [10]
65%: pest or weed control at 17.5 g/ha [6] | pest or weed control at 35 g/ha [6] | pest or weed control at 140 g/ha [6]
50%: pest or weed control at 70 g/ha [10] | pest or weed control at 35 g/ha [11]
95%: pest or weed control at 17.5 g/ha [2]
100%: pest or weed control at 17.5 g/ha [1] | pest or weed control at 35 g/ha [1] | pest or weed control at 70 g/ha [1] | pest or weed control at 140 g/ha [1] | pest or weed control at 70 g/ha [2] | pest or weed control at 140 g/ha [2]
85%: pest or weed control at 35 g/ha [3] | pest or weed control at 70 g/ha [7]
30%: pest or weed control at 17.5 g/ha [7]
10%: pest or weed control at 17.5 g/ha [4] | pest or weed control at 35 g/ha [4] | pest or weed control at 70 g/ha [4] | pest or weed control at 140 g/ha [5] | pest or weed control at 17.5 g/ha [11]
25%: pest or weed control at 140 g/ha [4]
97%: pest or weed control at 35 g/ha [2]
80%: pest or weed control at 35 g/ha [7] | pest or weed control at 140 g/ha [7]
70%: pest or weed control at 17.5 g/ha [3] | pest or weed control at 70 g/ha [11] | pest or weed control at 140 g/ha [11]
0%: pest or weed control at 17.5 g/ha [5] | pest or weed control at 35 g/ha [5] | pest or weed control at 70 g/ha [5] | pest or weed control at 17.5 g/ha [8] | pest or weed control at 35 g/ha [8] | pest or weed control at 70 g/ha [8] | pest or weed control at 17.5 g/ha [9] | pest or weed control at 35 g/ha [9] | pest or weed control at 70 g/ha [9] | pest or weed control at 140 g/ha [9] | pest or weed control at 17.5 g/ha [10] | pest or weed control at 35 g/ha [10]
90%: pest or weed control at 70 g/ha [3] | pest or weed control at 140 g/ha [3]
